# Values quoted from earlier work as cited in US20090196919A1, “OXCARBAZEPINE DOSAGE FORMS” (priority 2004, published 2009).
smiles,measurement,value
"NC(=O)N1c2ccccc2CC(=O)c2ccccc21 [Oxcarbazepine, 10,11-dihydro-10-oxo-5H-dibenz[b,f]azepine-5-carboxamide]",solubility in water,poor
